Experimental data: ChEMBL document CHEMBL1201862, “PubChem BioAssay data set” (2004)
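Five compound concentrations were applied to cells in 96-well plates for 48 hours; endpoints were derived by simple linear interpolation of the resulting dose-response curve. GI50: concentration for 50% inhibition of growth.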 Active and inactive are the calls of the source. No stated cut-off is given here; in the data, active = GI50 up to about 1.1 µM and inactive = higher.

How the values were obtained:
Assay in all cases: growth of human tumour cells (NCI), 48 h
[1] = tested on: 786-0
[2] = tested on: A498
[3] = tested on: A549
[4] = tested on: ACHN
[5] = tested on: BT-549
[6] = tested on: CAKI-1
[7] = tested on: CCRF-CEM
[8] = tested on: COLO 205
[9] = tested on: DLD-1
[10] = tested on: DMS-114
[11] = tested on: DMS-273
[12] = tested on: DU-145
[13] = tested on: EKVX
[14] = tested on: HCC 2998
[15] = tested on: HCT-116
[16] = tested on: HCT-15
[17] = tested on: HL-60
[18] = tested on: HOP-18
[19] = tested on: HOP-62
[20] = tested on: HOP-92
[21] = tested on: HT-29
[22] = tested on: Hs-578T
[23] = tested on: IGROV-1
[24] = tested on: K562
[25] = tested on: KM-20L2
[26] = tested on: KM12
[27] = tested on: LOX IMVI
[28] = tested on: LXFL 529
[29] = tested on: M14
[30] = tested on: M19-MEL
[31] = tested on: MCF7
[32] = tested on: MDA-MB-231
[33] = tested on: MDA-MB-435
[34] = tested on: MDA-N
[35] = tested on: MOLT-4
[36] = tested on: Malme-3M
[37] = tested on: NCI-H226
[38] = tested on: NCI-H23
[39] = tested on: NCI-H460
[40] = tested on: NCI-H522
[41] = tested on: NCI/ADR-RES
[42] = tested on: OVCAR-3
[43] = tested on: OVCAR-4
[44] = tested on: OVCAR-5
[45] = tested on: OVCAR-8
[46] = tested on: PC-3
[47] = tested on: RPMI-8226
[48] = tested on: RXF 393
[49] = tested on: RXF 631
[50] = tested on: SF-268
[51] = tested on: SF-295
[52] = tested on: SF-539
[53] = tested on: SK-MEL-28
[54] = tested on: SK-MEL-2
[55] = tested on: SK-MEL-5
[56] = tested on: SK-OV-3
[57] = tested on: SN12C
[58] = tested on: SNB-19
[59] = tested on: SNB-75
[60] = tested on: SNB-78
[61] = tested on: SR
[62] = tested on: SW-620
[63] = tested on: T47D
[64] = tested on: TK-10
[65] = tested on: U-251
[66] = tested on: UACC-257
[67] = tested on: UACC-62
[68] = tested on: UO-31
[69] = tested on: XF498

## COc1c(O)c(O)cc2c1-c1ccc(OC)c(=O)cc1C(NC(C)=O)CC2 (stereo unspecified)
[1]
  GI50: 8.04 µM (inactive)
[2]
  GI50: 15.5 µM (inactive)
[3]
  GI50: 37.4 µM (inactive)
[4]
  GI50: 37.5 µM (inactive)
[5]
  GI50: 2.22 µM (inactive)
[6]
  GI50: 24.2 µM (inactive)
[7]
  GI50: 3.72 µM (inactive)
[8]
  GI50: 3.13 µM (inactive)
[9]
  GI50: 4.71 µM (inactive)
[10]
  GI50: 2.49 µM (inactive)
[11]
  GI50: 3.27 µM (inactive)
[12]
  GI50: 12.3 µM (inactive)
[13]
  GI50: 25.5 µM (inactive)
[14]
  GI50: 5.38 µM (inactive)
[15]
  GI50: 3.94 µM (inactive)
[16]
  GI50: 30.6 µM
[17]
  GI50: 4.85 µM (inactive)
[18]
  GI50: > 100 µM (inactive)
[19]
  GI50: 7.6 µM (inactive)
[20]
  GI50: 2.7 µM (inactive)
[21]
  GI50: 3.07 µM (inactive)
[22]
  GI50: 2.66 µM (inactive)
[23]
  GI50: 5.26 µM (inactive)
[24]
  GI50: 3.57 µM (inactive)
[25]
  GI50: 2.7 µM (inactive)
[26]
  GI50: 3.43 µM (inactive)
[27]
  GI50: 4.84 µM (inactive)
[28]
  GI50: 3.86 µM (inactive)
[29]
  GI50: 3.78 µM (inactive)
[30]
  GI50: 6.12 µM (inactive)
[31]
  GI50: 2.61 µM (inactive)
[32]
  GI50: 4.94 µM (inactive)
[33]
  GI50: 1.6 µM (inactive)
[34]
  GI50: 1.69 µM (inactive)
[35]
  GI50: 6.24 µM (inactive)
[36]
  GI50: 5.7 µM (inactive)
[37]
  GI50: 21 µM (inactive)
[38]
  GI50: 3.95 µM (inactive)
[39]
  GI50: 6.07 µM (inactive)
[40]
  GI50: 1.84 µM (inactive)
[41]
  GI50: 29 µM (inactive)
[42]
  GI50: 2.21 µM (inactive)
[43]
  GI50: 22.6 µM (inactive)
[44]
  GI50: 40 µM (inactive)
[45]
  GI50: 7.55 µM (inactive)
[46]
  GI50: 6.62 µM (inactive)
[47]
  GI50: 10.9 µM (inactive)
[48]
  GI50: 2.84 µM (inactive)
[49]
  GI50: 14.9 µM (inactive)
[50]
  GI50: 5.52 µM (inactive)
[51]
  GI50: 5.13 µM (inactive)
[52]
  GI50: 2.81 µM (inactive)
[53]
  GI50: 8.07 µM (inactive)
[54]
  GI50: 3.15 µM (inactive)
[55]
  GI50: 2.52 µM (inactive)
[56]
  GI50: 5.35 µM (inactive)
[57]
  GI50: 8.95 µM (inactive)
[58]
  GI50: 5.51 µM (inactive)
[59]
  GI50: 4.24 µM (inactive)
[60]
  GI50: 3.12 µM (inactive)
[61]
  GI50: 3.24 µM (inactive)
[62]
  GI50: 4.41 µM (inactive)
[63]
  GI50: > 100 µM (inactive)
[64]
  GI50: 65.2 µM (inactive)
[65]
  GI50: 4.03 µM (inactive)
[66]
  GI50: 7.26 µM (inactive)
[67]
  GI50: 4.36 µM (inactive)
[68]
  GI50: 56.1 µM (inactive)
[69]
  GI50: 5.38 µM (inactive)

## CN(C)CCN1C(=O)c2cccc3cc([N+](=O)[O-])cc(c23)C1=O [MITONAFIDE]
[1]
  GI50: 0.195 µM (active)
[2]
  GI50: 0.167 µM (active)
[3]
  GI50: 0.0716 µM (active)
[4]
  GI50: 0.0762 µM (active)
[5]
  GI50: 0.904 µM (active)
[6]
  GI50: 0.153 µM (active)
[7]
  GI50: 0.163 µM (active)
[8]
  GI50: 0.191 µM (active)
[9]
  GI50: 0.873 µM (active)
[10]
  GI50: 0.223 µM (active)
[11]
  GI50: 0.0514 µM (active)
[12]
  GI50: 0.286 µM (active)
[13]
  GI50: 0.624 µM (active)
[14]
  GI50: 1.11 µM (active)
[15]
  GI50: 0.261 µM (active)
[16]
  GI50: 0.29 µM
[17]
  GI50: 0.0676 µM (active)
[18]
  GI50: 0.652 µM (active)
[19]
  GI50: 0.146 µM (active)
[20]
  GI50: 0.255 µM (active)
[21]
  GI50: 0.301 µM (active)
[22]
  GI50: 1.04 µM (active)
[23]
  GI50: 0.5 µM (active)
[24]
  GI50: 1.56 µM (inactive)
[25]
  GI50: 0.405 µM (active)
[26]
  GI50: 0.321 µM (active)
[27]
  GI50: 0.192 µM (active)
[28]
  GI50: 0.682 µM (active)
[29]
  GI50: 0.479 µM (active)
[30]
  GI50: 0.377 µM (active)
[31]
  GI50: 0.165 µM (active)
[32]
  GI50: 1.31 µM (inactive)
[33]
  GI50: 1.75 µM (inactive)
[34]
  GI50: 1.49 µM (inactive)
[35]
  GI50: 0.0406 µM (active)
[36]
  GI50: 0.404 µM (active)
[37]
  GI50: 0.0789 µM (active)
[38]
  GI50: 0.308 µM (active)
[39]
  GI50: 0.0803 µM (active)
[40]
  GI50: 0.281 µM (active)
[42]
  GI50: 1.37 µM (inactive)
[43]
  GI50: 1.2 µM (inactive)
[44]
  GI50: 0.762 µM (active)
[45]
  GI50: 0.252 µM (active)
[46]
  GI50: 0.931 µM (active)
[47]
  GI50: 0.443 µM (active)
[48]
  GI50: 0.337 µM (active)
[49]
  GI50: 0.171 µM (active)
[50]
  GI50: 0.324 µM (active)
[51]
  GI50: 0.209 µM (active)
[52]
  GI50: 0.155 µM (active)
[53]
  GI50: 1.34 µM (inactive)
[54]
  GI50: 1.37 µM (inactive)
[55]
  GI50: 0.237 µM (active)
[56]
  GI50: 0.198 µM (active)
[57]
  GI50: 0.179 µM (active)
[58]
  GI50: 0.25 µM (active)
[59]
  GI50: 0.194 µM (active)
[60]
  GI50: 2 µM (inactive)
[61]
  GI50: 0.129 µM (active)
[62]
  GI50: 0.17 µM (active)
[63]
  GI50: 0.601 µM (active)
[64]
  GI50: 2.13 µM (inactive)
[65]
  GI50: 0.213 µM (active)
[66]
  GI50: 0.838 µM (active)
[67]
  GI50: 0.247 µM (active)
[68]
  GI50: 0.248 µM (active)
[69]
  GI50: 0.303 µM (active)

## COc1ccc(NC(=O)CC(=O)n2nc(-c3ccccc3)c(/N=N/c3ccc(C)cc3)c2-c2ccccc2)cc1
[1]
  GI50: 19.2 µM (inactive)
[2]
  GI50: > 49.3 µM (inactive)
[3]
  GI50: 44 µM (inactive)
[4]
  GI50: 32.5 µM (inactive)
[5]
  GI50: 21.2 µM (inactive)
[6]
  GI50: 55.3 µM (inactive)
[7]
  GI50: > 84.7 µM (inactive)
[8]
  GI50: > 100 µM (inactive)
[9]
  GI50: > 79.3 µM (inactive)
[10]
  GI50: > 49.5 µM (inactive)
[11]
  GI50: 33.3 µM (inactive)
[12]
  GI50: > 59.7 µM (inactive)
[13]
  GI50: 21.8 µM (inactive)
[14]
  GI50: 62.8 µM (inactive)
[15]
  GI50: 34.1 µM (inactive)
[16]
  GI50: > 100 µM
[17]
  GI50: > 100 µM (inactive)
[18]
  GI50: 24.3 µM (inactive)
[19]
  GI50: 10.4 µM (inactive)
[20]
  GI50: 16.8 µM (inactive)
[21]
  GI50: > 88.3 µM (inactive)
[22]
  GI50: 16.6 µM (inactive)
[23]
  GI50: 16.9 µM (inactive)
[24]
  GI50: > 85.3 µM (inactive)
[25]
  GI50: > 78.2 µM (inactive)
[26]
  GI50: 65.6 µM (inactive)
[27]
  GI50: 38.8 µM (inactive)
[28]
  GI50: 40.8 µM (inactive)
[29]
  GI50: 52.6 µM (inactive)
[30]
  GI50: 28.9 µM (inactive)
[31]
  GI50: > 52.1 µM (inactive)
[32]
  GI50: 25.6 µM (inactive)
[33]
  GI50: > 100 µM (inactive)
[34]
  GI50: > 100 µM (inactive)
[35]
  GI50: > 95.9 µM (inactive)
[36]
  GI50: 31.5 µM (inactive)
[37]
  GI50: 21.7 µM (inactive)
[38]
  GI50: 28.4 µM (inactive)
[39]
  GI50: 35.3 µM (inactive)
[40]
  GI50: 29 µM (inactive)
[41]
  GI50: 25.7 µM (inactive)
[42]
  GI50: 43 µM (inactive)
[43]
  GI50: 27.5 µM (inactive)
[44]
  GI50: > 80 µM (inactive)
[45]
  GI50: 21.7 µM (inactive)
[46]
  GI50: > 41.4 µM (inactive)
[47]
  GI50: 55.7 µM (inactive)
[48]
  GI50: 19.1 µM (inactive)
[49]
  GI50: 54.5 µM (inactive)
[50]
  GI50: 21.6 µM (inactive)
[51]
  GI50: 23.8 µM (inactive)
[52]
  GI50: 25.4 µM (inactive)
[53]
  GI50: > 91.6 µM (inactive)
[54]
  GI50: 32.7 µM (inactive)
[55]
  GI50: > 65.2 µM (inactive)
[56]
  GI50: 16.4 µM (inactive)
[57]
  GI50: 38 µM (inactive)
[58]
  GI50: 21.5 µM (inactive)
[59]
  GI50: 16.4 µM (inactive)
[60]
  GI50: 20.8 µM (inactive)
[61]
  GI50: 47.2 µM (inactive)
[62]
  GI50: 69.5 µM (inactive)
[63]
  GI50: 36.1 µM (inactive)
[64]
  GI50: 36.2 µM (inactive)
[65]
  GI50: 20.8 µM (inactive)
[66]
  GI50: 57.8 µM (inactive)
[67]
  GI50: 27.9 µM (inactive)
[68]
  GI50: 29.3 µM (inactive)
[69]
  GI50: 12.4 µM (inactive)
